One assay has as its system BUVEC E6E7. Description: Vasopermeability in vitro: transendothelial electrical resistance (TEER). The assay is classed as cell-based, bovine. Conditions: BUVEC E6E7 monolayer, 100 nM, 50 ng ml^-1 VEGF, up to 120 minutes. The method, then:
Another conventional protocol to evaluate vasopermeability is the measurement of the transendothelial electrical resistance (TEER), which uses a device that applies an electric current through electrodes at both sides of the endothelial cell monolayer. […] The effect of the oligopeptide THGRGFI on endothelial cell permeability was evaluated by measuring TEER. BUVEC E6E7 were seeded in the TEER device at a density of 10,000 cells cm^−2. After three days, the monolayers were starved in low serum media (0.1% FBS) for 48 hours and after this time, 100 nM of vasoinhibin or of the oligopeptide were added to the upper compartment (luminal surface of the monolayer) for 1 hour. At time 0, TEER was recorded and 50 ng ml^−1 of VEGF were added to the luminal side. The TEER was measured at 10, 20, 30, 60, 90 and 120 minutes. Determinations were performed with the Epithelial Volt/Ohm (TEER) EVOM2 equipment (World Precision Instruments, FL, USA) with a 4 mm ‘chopstick’ electrode. Values were normalized relative to a device with no cells and a monolayer without treatment.

Another assay relates to interleukin-1α (IL-1α). Description: Expression of vasoinhibin target gene IL-1α mRNA in BUVEC E6E7 (qPCR). The format is cell-based, bovine. Conditions: BUVEC E6E7, 100 nM, 4 hours. The method, then:
Vasoinhibin induces the expression of a variety of genes via the activation of NF-KB to promote angiostatic and inflammatory effects. In particular, interleukin-1 alpha (IL-1α) and the intercellular adhesion molecule 1 (ICAM1) are vasoinhibin gene targets in the bovine endothelial cells. To evaluate the ability of the oligopeptide […] to induce the expression of IL-1α and ICAM1, BUVEC […] cells were seeded on 12 well plates with F12K-10% FBS, grown to 80% confluency, and starved with low serum (0.1% FBS) culture medium for 24 h. […] After 4 hours the RNA was extracted from the cells using Trizol (Invitrogen, Carlsbad, CA) and retrotranscribed using the High Capacity cDNA Reverse Transcription Kit (Applied Biosystems, Foster City, CA). The RT-PCR products were quantified in a Maxima SYBRgreen qPCR (Thermo Fisher Scientific) 10 μl final volume reaction mixture containing the template and 0.25 μM of each primer. The PCR amplification was done in the CFX96 Real Time PCR (BioRad), comprising a 10-minute denaturalization at 95° C., followed by 35 amplification cycles (95° C. for 10 sec, 58° C. for 30 sec, and 72° C. for 30 sec). […] The PCR data was analyzed by the 2^-ΔΔCT method and the threshold of the cycles (CT) was normalized by the constitutive housekeeping gene cyclophilin A (PPIA). […]

For assay [1], the system named is immortalized bovine umbilical-vein endothelial cells (BUVEC E6E7). Description: Proliferation of BUVEC E6E7 endothelial cells stimulated with VEGF (EdU click assay). The format is cell-based. Conditions: BUVEC E6E7, 50 ng ml^-1 VEGF, 24 hours, 0.001 to 100 nM; read-out: effective dose (EC50) for inhibition of proliferation. The method, then: On a 96-well plate treated for cell culture, BUVEC E6E7 and HUVEC cells were seeded at a density of ˜14,000 and ˜11,000 cells cm^−2, respectively. BUVEC E6E7 cells were maintained in F12K culture media with 10% (v/v) fetal bovine serum (FBS) and the HUVEC in F12K media supplemented with 20% of FBS, 100 μg ml^−1 heparin and 25 μg ml^−1 of endothelial cell growth supplement (ECGS). After 24 hours, the cells were starved with FBS-reduced media (0.1% of FBS for BUVEC E6E7 and 0.5% for HUVEC) for 16 hours to synchronize cells in phase GO of the reproductive cycle. After this time, FBS and heparin were replenished only to HUVEC. The cells were then treated with vasoinhibin or the oligopeptide THGRGFI in concentrations ranging from 0.001 to 100 nM for 24 hours in the presence of 10 μM of the thymidine analog 5-Ethynyl-2′-deoxyuridine (EdU) and 50 ng ml^−1 VEGF for the BUVEC E6E7 or the combination of 25 ng ml^−1 VEGF and 20 ng ml^−1 bFGF for HUVEC. At the end of the experiment, cells were fixed with 4% paraformaldehyde, permeabilized with 0.5% Triton X-100 in TBS1x, and stained to detect the newly synthetized DNA by the incorporation of EdU using the “click” assay (which involves a copper catalyzed reaction to covalently bind fluorescent azide to the EDU incorporated to DNA). Total DNA was counterstained with Hoechst 33342 and the “click”-stained nuclei were quantified and plotted relative to the total number of Hoechst 33342-stained nuclei.
For the assay, BUVEC E6E7 cells were seeded at a density of ˜14′000 cells cm^−2 in a 96 well plate with F12K with 10% (v/v) FBS. After 24 hours, cells were starved with 0.1% of FBS for GO synchronization for ˜16 hours. Next, the cells were treated with the different oligopeptides in presence of 10 μM of the thymidine analog EdU and 50 ng ml^−1 of VEGF. Finally, the cells were fixed, permeabilized, and stained for the newly synthetized DNA by the EdU incorporation through the ‘click’ assay. The total DNA was stained with Hoechst 33342 and the percentage of ‘click’-stained nuclei over the total nuclei was a measure of proliferation.

Consider “Ac-THGRGFI-NH2 [THGRGFI, Thr His Gly Arg Gly Phe Ile]”, for which the “effect on VEGF-induced reduction of transendothelial resistance (TEER)” value with BUVEC E6E7 is “block the VEGF effect”. For the same substance, the “fold-change of expression of IL-1α mRNA versus non-treated control” value in the assay with interleukin-1α (IL-1α) is roughly 30 fold. Also, the EC50 in assay [1] was roughly 1 nM.

The values are drawn from US20260091078A1, “OLIGOPEPTIDE THAT INHIBITS ANGIOGENESIS AND VASCULAR FUNCTION” (UNIVERSIDAD NACIONAL AUTONOMA DE MEXICO, priority 2019, published 2026).
